Columns and labels:
[1] = Solubility of BMS-986165 crystalline free base as a function of pH; type: physicochemical; conditions: pHs>4
[2] = Chemical stability (related substances) of BMS-986165:HPMCAS-H SDDs on storage; type: physicochemical; conditions: API standard, no storage condition
Procedure: Lots of 25% w/w BMS-986165 SDD with HPMCAS-H were assessed for physical and chemical stability. […] Dissolution performance in the microcentrifuge test was unchanged.
There was no evidence of crystallization by PXRD in any SDD after storage for up to 6 months at 40° C./75% RH open (FIG. 1A and FIG. 1B). DSC data indicated slight changes similar to those observed in 25% w/w BMS-986165 SDD after exposure to 50° C./75% RH or 40° C./75% RH but there was no trend with API loading and the results were considered to reflect an “ageing” or “annealing” effect rather than crystal formation. Scanning electron microscopy (SEM) images confirmed the presence of a single phase homogenous dispersion (FIG. 2A-C, FIG. 3A-C, FIG. 4A-C).

| solubility [1] | BMS-986165 (related substances, relative ret. time 1.00) [2] | Total impurities >LOQ [2] [%] | Structure (SMILES) |
| --- | --- | --- | --- |
| low | – | – | [2H]C([2H])([2H])NC(=O)c1nnc(NC(=O)C2CC2)cc1Nc1cccc(-c2ncn(C)n2)c1OC [BMS-986165 crystalline free base, 6-(cyclopropaneamido)-4-((2-methoxy-3-(1-methyl-1H-1,2,4-triazol-3-yl)phenyl)amino)-N-(methyl-d3)pyridazine-3-carboxamide] |
| – | 99.48 | 0.52 | [2H]C([2H])([2H])NC(=O)c1nnc(NC(=O)C2CC2)cc1Nc1cccc(-c2ncn(C)n2)c1OC [BMS-986165, 6-(cyclopropaneamido)-4-((2-methoxy-3-(1-methyl-1H-1,2,4-triazol-3-yl)phenyl)amino)-N-(methyl-d3)pyridazine-3-carboxamide] |
